Experimental data taken from paper PMC2988379 (The Journal of Biological Chemistry, 2010).
Numbering of substitutions follows the chain as printed. Like-named read-outs stand apart in the source and are kept apart here.

Assays:
Assay in all cases: intrinsic Trp fluorescence titration
Type in all cases: binding
[1] = target: T1, PimB′ (Corynebacterium glutamicum PimB′, NCgl2106) (Corynebacterium glutamicum, UniProt Q8NNK8)
T1 sequence (Q8NNK8 1-381): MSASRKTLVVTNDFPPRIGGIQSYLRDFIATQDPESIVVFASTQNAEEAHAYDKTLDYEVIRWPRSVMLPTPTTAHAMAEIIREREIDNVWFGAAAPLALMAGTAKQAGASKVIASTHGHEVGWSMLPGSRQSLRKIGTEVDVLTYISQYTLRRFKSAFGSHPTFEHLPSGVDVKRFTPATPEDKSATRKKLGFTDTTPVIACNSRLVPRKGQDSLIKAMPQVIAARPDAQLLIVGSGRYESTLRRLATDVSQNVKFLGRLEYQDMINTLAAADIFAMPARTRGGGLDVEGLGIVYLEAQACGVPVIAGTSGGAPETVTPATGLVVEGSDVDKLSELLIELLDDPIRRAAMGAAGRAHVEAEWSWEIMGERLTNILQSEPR

[2] = target: T2, PimB′ (Corynebacterium glutamicum PimB′, NCgl2106) (Corynebacterium glutamicum, UniProt Q8NNK8, D13A)
T2 sequence (Q8NNK8 1-381 D13A): T1 sequence (Q8NNK8 1-381) with D13A

[3] = target: T3, PimB′ (Corynebacterium glutamicum PimB′, NCgl2106) (Corynebacterium glutamicum, UniProt Q8NNK8, R206S)
T3 sequence (Q8NNK8 1-381 R206S): T1 sequence (Q8NNK8 1-381) with R206S

[4] = target: T4, PimB′ (Corynebacterium glutamicum PimB′, NCgl2106) (Corynebacterium glutamicum, UniProt Q8NNK8, H118S)
T4 sequence (Q8NNK8 1-381 H118S): T1 sequence (Q8NNK8 1-381) with H118S

[5] = target: T5, PimB′ (Corynebacterium glutamicum PimB′, NCgl2106) (Corynebacterium glutamicum, UniProt Q8NNK8, R210S)
T5 sequence (Q8NNK8 1-381 R210S): T1 sequence (Q8NNK8 1-381) with R210S

[6] = target: T6, PimB′ (Corynebacterium glutamicum PimB′, NCgl2106) (Corynebacterium glutamicum, UniProt Q8NNK8, G291S)
T6 sequence (Q8NNK8 1-381 G291S): T1 sequence (Q8NNK8 1-381) with G291S

[7] = target: T7, PimB′ (Corynebacterium glutamicum PimB′, NCgl2106) (Corynebacterium glutamicum, UniProt Q8NNK8, I21A)
T7 sequence (Q8NNK8 1-381 I21A): T1 sequence (Q8NNK8 1-381) with I21A

[8] = target: T1, PimB′ (Corynebacterium glutamicum PimB′, NCgl2106); remark: listed apart in the source
[9] = target: T8, PimB′ (Corynebacterium glutamicum PimB′, NCgl2106) (Corynebacterium glutamicum, UniProt Q8NNK8, Q22A)
T8 sequence (Q8NNK8 1-381 Q22A): T1 sequence (Q8NNK8 1-381) with Q22A

[10] = target: T9, PimB′ (Corynebacterium glutamicum PimB′, NCgl2106) (Corynebacterium glutamicum, UniProt Q8NNK8, G20W)
T9 sequence (Q8NNK8 1-381 G20W): T1 sequence (Q8NNK8 1-381) with G20W

[11] = target: T10, PimB′ (Corynebacterium glutamicum PimB′, NCgl2106) (Corynebacterium glutamicum, UniProt Q8NNK8, D13N)
T10 sequence (Q8NNK8 1-381 D13N): T1 sequence (Q8NNK8 1-381) with D13N

[12] = target: T11, PimB′ (Corynebacterium glutamicum PimB′, NCgl2106) (Corynebacterium glutamicum, UniProt Q8NNK8, S205G)
T11 sequence (Q8NNK8 1-381 S205G): T1 sequence (Q8NNK8 1-381) with S205G

Kd [1] [µM]	SMILES	Kd [2] [µM]	Kd [3] [µM]	Kd [4] [µM]	Kd [5] [µM]	Kd [6] [µM]	Kd [7] [µM]	Kd [8] [µM]	Kd [9] [µM]	Kd [10] [µM]	Kd [11] [µM]	Kd [12] [µM]
36.5 ± 6.9	Nc1nc2c(ncn2[C@@H]2O[C@H](COP(=O)(O)OP(=O)(O)O)[C@@H](O)[C@H]2O)c(=O)[nH]1 [GDP]											
	Nc1nc2c(ncn2[C@@H]2O[C@H](COP(=O)(O)OP(=O)(O)O[C@H]3O[C@H](CO)[C@@H](O)[C@H](O)[C@@H]3O)[C@@H](O)[C@H]2O)c(=O)[nH]1 [GDP-Man]	42.8 ± 11.9	42.7 ± 9.4	72.4 ± 27.5	40.2 ± 10.7	68.7 ± 35.5	56 ± 14.5	19 ± 4.6	60.3 ± 22.8	21.9 ± 6.4	30.1 ± 6.9	18.7 ± 4.6
